Laboratory results from US7427599B2, “Biologically active peptide comprising Tyrosyl-seryl-valine(YSV)” (CMS Peptides Patent Holding Company Limited, priority 2003, dated 2008).
Marks after values point to notes of the source that are not given here.

How the values were obtained:
melanoma B16 = assay: Growth of C57BL/6 mice-transplanted melanoma B16; type: in vivo; settings: 20 mg/kg/day intraperitoneal, 20 consecutive days
Description: B16 cells were maintained in RPMI-1640 medium with 10% FBS at 37° C., 5% CO2. Mouse B16 melanoma culture at log phase was adjusted to 2.5×10^6/ml with Hank's solution. 0.2 ml of this was subcutaneously injected to the right axilla of healthy C57 BL/6 mice to form the melanoma mice model. […] From the next day after the tumor implantation, the general conditions of the mice and the growth of the tumor were observed daily. On the next day after the last test substance administration, the tumors were extirpated and the weights of tumor were measured. […] The results were presented as arithmetic mean ±SD. Statistical analysis was performed using the ANOVA test of the SPSS software.

[1] = tested on: A549 human pulmonary carcinoma; assay: A549 human pulmonary carcinoma xenograft in nude mice; type: in vivo, BALB/c (nu/nu) athymic nude mice; settings: 20 mg/kg/day i.p., 40 days
Description: Healthy BALB/c (nu/nu) athymic nude mice (SPF, 4-5 weeks old, weighting 18-22 g) were purchased from Shanghai Tumor Academe of China Medical Academy of Science. In the first experiment, female was used. In the second experiment, male was used.
Select A549 human pulmonary carcinoma xenografts of diameter longer than 1 cm with good growth on nude mice. Aseptically excise the tumor mass, cut into pieces of 2-4 mm^3 and submerged in RPMI1640. Pulmonary carcinoma nude mice model was prepared by transplanting the tumor mass hypodermally to the back of healthy nude mice near to the neck via an incision at the ventral thorax.
The nude mice bearing A549 xenografts were randomly divided into groups of: saline control (0.2 ml/day), YSV groups of different dosages, and Cy control (0.2 mg/kg/day). The test substances were dissolved in 0.2 ml saline and administered intraperitoneally to the mice starting from the day after the transplantation, once per day for 40 consecutive days.
The general condition of the mice was observed daily. The mice were weighed every 3-4 days and the volume of the tumor was measured:
V=(⅙)πXYZ, where X, Y, and Z were the diameters of the tumor on the 3 planes.
The day after the last injection, the tumors were excised, weighted, and the volume measured. The tumors were examined for signs of necrosis. Tumor inhibition index=(average tumor weight of saline group−average tumor weight of test group)/average tumor weight of saline group×100%)
Statistical analysis was performed with SPSS software using one-way ANOVA analysis.

Q: `O=P1(N(CCCl)CCCl)NCCCO1` (centres unmarked) [Cyclophosphamide, reference compound] was tested. Which “The Inhibition rate (%)” value (melanoma B16) did it give?
A: 81.5%

Q: And the “Tumor weight” value (melanoma B16; saline 2.64 ± 0.68)?
A: 0.49 ± 0.68 g

Q: What about the “Tumor inhibition index (%)” value ([1]; experiment 1, female nude mice) of the same molecule?
A: 39.8%

Q: What about the “Tumor volume (cm^3)” value ([1]; experiment 1, female nude mice, saline 1.87 ± 1.10) of the same molecule?
A: 1.02 ± 0.47* cm^3

Q: And the “Tumor weight” value ([1]; experiment 1, female nude mice, saline 2.49 ± 1.02)?
A: 1.50 ± 0.75 g

Q: And the “Tumor inhibition index (%)” value ([1]; experiment 2, male nude mice)?
A: 51.9%

Q: What about the “Tumor volume (cm^3)” value ([1]; experiment 2, male nude mice, saline 1.34 ± 0.69) of the same molecule?
A: 0.49 ± 0.34* cm^3

Q: What about the “Tumor weight” value ([1]; experiment 2, male nude mice, saline 1.51 ± 0.79) of the same molecule?
A: 0.73 ± 0.42 g
